Laboratory results from patent US20220040115A1, “PHARMACEUTICAL COMPOSITIONS AND DELIVERY SYSTEMS FOR PREVENTION AND TREATMENT OF CANDIDIASIS” (INDIAN INSTITUTE OF TECHNOLOGY HYDERABAD, priority 2018, published 2022).

Legend:
[1] = test system: Candida albicans; test: Inhibition zone test of oil compositions on Candida albicans (Example 1); format: cell-based; parameters: unit not given here
Procedure: Different two-oil and three-oil compositions with varying ratios were prepared in order to check the performance of the oils for inhibition of Candida albicans. Fluconazole and saline were used as positive and negative controls, respectively.

[2] = test system: Candida albicans; test: Antifungal activity (zone of inhibition) of microcapsules and bacterial cellulose loaded microcapsules; format: cell-based
Text: The anti-fungal activity of the microcapsules and cellulosic matrices were checked for inhibition of Candida albicans. The studies are depicted in FIG. 15, FIG. 16, FIG. 17 and FIG. 18.

SMILES | Inhibition zone diameter ([1]; volume 50 μL, 24 hrs) | Inhibition zone diameter ([1]; volume 100 μL, 24 hrs) | Inhibition zone diameter ([1]; volume 150 μL, 24 hrs) | Inhibition zone diameter ([1]; volume 200 μL, 24 hrs) | Inhibition zone diameter ([1]; 200 μg, time period 24 hrs) | Inhibition zone diameter ([1]; 200 μg, time period 48 hrs) | Inhibition zone diameter ([1]; 200 μg, time period 72 hrs) | Zone of inhibition ([2]; 24 hrs) | Zone of inhibition ([2]; 48 hrs) | Zone of inhibition ([2]; 72 hrs)
Cc1ccc(C(C)C)cc1O [Carvacrol, 5-Isopropyl-2-methylphenol] | 3.2 | 3.8 | 4.5 | 5.1 |  |  |  |  |  | 
C=CCc1ccc(O)c(OC)c1 [Eugenol, 2-Methoxy-4-(prop-2-en-1-yl) phenol] | 2.0 | 3.5 | 4.1 | 4.3 |  |  |  |  |  | 
OC(Cn1cncn1)(Cn1cncn1)c1ccc(F)cc1F [Fluconazole] |  |  |  |  | 5.3 | 4.5 | 3.4 | 3.5 ± 0.1 | 1.8 ± 0.1 | 1.5 ± 0.1
Cc1ccc(C(C)C)c(O)c1 [Thymol, 2-isopropyl-5-methylphenol] | 2.5 | 3.1 | 3.9 | 4.2 |  |  |  |  |  | 
